The text below walks through data of patent publication US4582934A, “Alpha,alpha-dimethylphenylacetanilide derivatives, process for production thereof, and use thereof as insecticide” (Yashima Chemical Industrial Co., Ltd., priority 1983, dated 1986).

Converted amounts (≈) assume the structure as drawn. Where two headings read alike, the source gives them in different places.

Holding throughout (format): in vivo
In assay [1] the test system is Resistant Plutella xylostella. The assay is described as follows: Indoor test on 3rd-instar larvae of Plutella xylostella, resistant insects (cabbage leaf dip). Particulars: foliar, read-out: LC50 (50% lethal concentration). The procedure: (§1) Indoor test on 3rd-instar larvae of Plutella xylostella:
(§2) A wettable powder prepared as in Formulation Example 2 was diluted to a predetermined concentration. Cabbage leaves were dipped for 10 seconds in the resulting dilution and then air dried. The leaves were put into a polyvinyl chloride cup having a capacity of 90 ml together with 3rd-instar larvae of Plutella xylostella. The cup was left to stand in a constant temperature chamber kept at 25° C., and 72 hours later, the number of dead insects was examined. For each test area, the test was repeated twice, and 20 insects were used in each area. The ratio of the dead insects was calculated, and LC50 (50% lethal concentration) values of the test compounds were determined by the method of Bliss.
(§3) The sensitive Plutella xylostella insects in the table were those bred through generations at the Laboratory of Yashima Chemical Industrial Co., Ltd. The resistant ones were hunted at Tsumakoi-mura, Gunma-ken, Japan.

The test system of assay [2] is Resistant Plutella xylostella. Description: Field test on Plutella xylostella (cabbage, spray). The note with it: larvae per 10 heads of cabbage, not sprayed = 100. The procedure: Field test on Plutella xylostella:
On predetermined dates, the number of larvae per 10 heads of cabbage was examined, and the corrected density indices of the test compounds were calculated in accordance with the following equation. [formula]

In assay [3] the test system is Sensitive Plutella xylostella. The assay is described as follows: Indoor test on 3rd-instar larvae of Plutella xylostella, sensitive insects (cabbage leaf dip). The note with it: foliar, read-out: LC50 (50% lethal concentration). The procedure: as §1, §2, §3
The subject of a further assay is Thrips palmi. The assay is described as follows: Test on Thrips palmi (potted eggplants, spray). The note with it: eggplants in pots, not sprayed = 100. The procedure:
An emulsifiable emulsion prepared as in Formulation Example 3 was diluted with water to a predetermined concentration. The dilution was sprayed on eggplants which were grown in pots and on which Thrips palmi was parasitic, so that the dilution fully dripped on the plant leaves. The number of dead insects was examined at predetermined dates, and the corrected density indices of the test compounds were calculated. For each area, the test was repeated three times.

Turning to `COP(=O)(NC(C)=O)SC` (centres unmarked) [Acephate, O,S--dimethyl N--acetylphosphoramidothiolate, reference compound], in assay [1] (Plutella xylostella, 72 h), the LC50 stood at 878 µg/mL (≈ 4790 µM). Further, in assay [2] (500 ppm), the “Corrected density index After 3 days” value is listed as 8, the “Corrected density index After 7 days” value was found to be 12 and the “Corrected density index After 14 days” value was 15. In assay [3] (Plutella xylostella, 72 h), the LC50 came to 178 µg/mL (≈ 972 µM).
As for `CCC(C)c1ccccc1OC(=O)NC` (centres unmarked) [BPMC, 2sec. butylphenylN--methyl carbamate, reference compound], in the assay with Thrips palmi (250 ppm), the “Corrected density index After 1 day” value was 7, the “Corrected density index After 3 days” value turned out to be 35 and the “Corrected density index After 7 days” value is given as 57. In addition, in the assay with Thrips palmi (500 ppm), the “Corrected density index After 1 day” value stood at 2, the “Corrected density index After 3 days” value is 15 and the “Corrected density index After 7 days” value turned out to be 45.
On to `CC(C)(C(=O)Nc1ccc(Br)cc1)c1ccc(Cl)cc1` [Compound No. 3], for which the LC50 in assay [1] (Plutella xylostella, 72 h) stood at 51 µg/mL (≈ 145 µM); in assay [3] (Plutella xylostella, 72 h) it was 57 µg/mL (≈ 162 µM). The “Corrected density index After 3 days” value worked out at 7 in assay [2] (250 ppm), 8 in the assay with Thrips palmi (250 ppm) and 3 in the assay on Thrips palmi (500 ppm). In addition, the “Corrected density index After 7 days” value was determined as 2 in assay [2] (250 ppm), 14 in the assay on Thrips palmi (250 ppm) and 3 in the assay on Thrips palmi (500 ppm). In assay [2] (250 ppm), the “Corrected density index After 14 days” value was 3. In addition, the “Corrected density index After 1 day” value with Thrips palmi (250 ppm) worked out at 16; in the assay with Thrips palmi (500 ppm), 9.
Regarding `CC(C)(C(=O)Nc1ccc(C(F)(F)F)cc1)c1ccc(Cl)cc1` [Compound No. 4], the LC50 in assay [1] (Plutella xylostella, 72 h) turned out to be 96 µg/mL (≈ 281 µM); in assay [3] (Plutella xylostella, 72 h) it was 95 µg/mL (≈ 278 µM). The “Corrected density index After 3 days” value in assay [2] (250 ppm) is 7; with Thrips palmi (250 ppm), 8; with Thrips palmi (500 ppm), 4. Also, the “Corrected density index After 7 days” value is 1 in assay [2] (250 ppm), 11 in the assay on Thrips palmi (250 ppm) and 6 in the assay on Thrips palmi (500 ppm). Moreover, in assay [2] (250 ppm), the “Corrected density index After 14 days” value amounted to 0. Besides, the “Corrected density index After 1 day” value in the assay on Thrips palmi (250 ppm) was determined as 19; with Thrips palmi (500 ppm), 12.
Regarding `CCN(C(=O)C(C)(C)c1ccc(Cl)cc1)c1ccc(Cl)cc1` [Compound No. 7], the LC50 in assay [1] (Plutella xylostella, 72 h) was found to be 53 µg/mL (≈ 158 µM). Further, in assay [2] (250 ppm), the “Corrected density index After 3 days” value is given as 4, the “Corrected density index After 7 days” value is 0 and the “Corrected density index After 14 days” value is reported as 0. For the same molecule, in the assay on Thrips palmi (250 ppm), the “Corrected density index After 1 day” value was 16, the “Corrected density index After 3 days” value is 9 and the “Corrected density index After 7 days” value was determined as 13. In the assay on Thrips palmi (500 ppm), the “Corrected density index After 1 day” value came to 10, the “Corrected density index After 3 days” value is 2 and the “Corrected density index After 7 days” value came out at 3. In addition, the LC50 in assay [3] (Plutella xylostella, 72 h) came to 51 µg/mL (≈ 152 µM).
Regarding `COP(=O)(OC)OC=C(Cl)Cl` [DDVP, 2,2-dichlorovinyl dimethyl phosphate, reference compound], the LC50 in assay [1] (resistant Plutella xylostella, 3rd-instar larvae, 72 hours, 25° C., wettable powder dilution, method of Bliss) was determined as 1020 µg/mL. For the same molecule, in assay [2] (500 ppm), the “Corrected density index After 3 days” value was found to be 15, the “Corrected density index After 7 days” value was found to be 52 and the “Corrected density index After 14 days” value stood at 86. For the same molecule, the LC50 in assay [3] (sensitive Plutella xylostella, 3rd-instar larvae, 72 hours, 25° C., wettable powder dilution, method of Bliss) is 103 µg/mL.
On to `CC(C)(C(=O)Nc1ccc(F)cc1)c1ccc(Cl)cc1` [compound 1], for which the LC50 in assay [1] (Plutella xylostella, 72 h) came out at 123 µg/mL (≈ 422 µM); in assay [3] (Plutella xylostella, 72 h), 126 µg/mL (≈ 432 µM).
With `CC(C)(C(=O)Nc1ccc(Cl)cc1)c1ccc(Cl)cc1` [compound 2, alpha,alpha-dimethyl-p-chlorophenylaceto-p-chloranilide], the LC50 in assay [1] (Plutella xylostella, 72 h) stood at 110 µg/mL (≈ 357 µM). In assay [2] (250 ppm), the “Corrected density index After 3 days” value is given as 10, the “Corrected density index After 7 days” value was 5 and the “Corrected density index After 14 days” value is recorded as 2. Moreover, in the assay with Thrips palmi (250 ppm), the “Corrected density index After 1 day” value was 16, the “Corrected density index After 3 days” value amounted to 14 and the “Corrected density index After 7 days” value is 14. In addition, in the assay on Thrips palmi (500 ppm), the “Corrected density index After 1 day” value came out at 20, the “Corrected density index After 3 days” value came out at 10 and the “Corrected density index After 7 days” value is given as 12. Besides, the LC50 in assay [3] (Plutella xylostella, 72 h) came out at 101 µg/mL (≈ 328 µM).
`CC(C)(C(=O)Nc1ccc(C#N)cc1)c1ccc(Cl)cc1` [compound 5]: the LC50 in assay [1] (Plutella xylostella, 72 h) was 90 µg/mL (≈ 301 µM); in assay [3] (Plutella xylostella, 72 h) it was 97 µg/mL (≈ 325 µM).
The corresponding values for `CN(C(=O)C(C)(C)c1ccc(Cl)cc1)c1ccc(Cl)cc1` [compound 6] are 60 µg/mL (≈ 186 µM) and 61 µg/mL (≈ 189 µM).
`CCCN(C(=O)C(C)(C)c1ccc(Cl)cc1)c1ccc(Cl)cc1` [compound 8]: the LC50 in assay [1] (Plutella xylostella, 72 h) was found to be 204 µg/mL (≈ 582 µM); in assay [3] (Plutella xylostella, 72 h) it was 198 µg/mL (≈ 565 µM).
The matching figures for `CCCCN(C(=O)C(C)(C)c1ccc(Cl)cc1)c1ccc(Cl)cc1` [compound 9]: 365 µg/mL (≈ 1000 µM) and 372 µg/mL (≈ 1020 µM).
For `CCN(C(=O)C(C)(C)c1ccc(Cl)cc1)c1ccc(Br)cc1` [compound 10, alpha,alpha-dimethyl-p-chlorophenylaceto-N-ethyl-p-bromanilide], the LC50 in assay [1] (Plutella xylostella, 72 h) turned out to be 46 µg/mL (≈ 121 µM); in assay [3] (Plutella xylostella, 72 h) it was 48 µg/mL (≈ 126 µM). Also, the “Corrected density index After 3 days” value turned out to be 5 in assay [2] (250 ppm), 12 in the assay on Thrips palmi (250 ppm) and 1 in the assay with Thrips palmi (500 ppm). Also, the results for the “Corrected density index After 7 days” value (in assay [2] (250 ppm); with Thrips palmi (250 ppm); with Thrips palmi (500 ppm)) were 0, 11 and 4, respectively. Also, the “Corrected density index After 14 days” value in assay [2] (250 ppm) is on record as 0. In addition, the entries for the “Corrected density index After 1 day” value with Thrips palmi (250 ppm) and in the assay on Thrips palmi (500 ppm) were 12 and 7, respectively.
As to `CC(C)(C(=O)Nc1ccc(Cl)cc1)c1ccc(F)cc1` [compound 11], the LC50 in assay [1] (Plutella xylostella, 72 h) is 111 µg/mL (≈ 380 µM); in assay [3] (Plutella xylostella, 72 h) it was 107 µg/mL (≈ 367 µM).
As for `CC(C)(C(=O)Nc1ccc(C(F)(F)F)cc1)c1ccc(F)cc1` [compound 12], the LC50 turned out to be 110 µg/mL (≈ 338 µM) in assay [1] (Plutella xylostella, 72 h) and 95 µg/mL (≈ 292 µM) in assay [3] (Plutella xylostella, 72 h).
Regarding `CCN(C(=O)C(C)(C)c1ccc(F)cc1)c1ccc(Cl)cc1` [compound 13], the LC50 came out at 73 µg/mL (≈ 228 µM) in assay [1] (Plutella xylostella, 72 h) and 74 µg/mL (≈ 231 µM) in assay [3] (Plutella xylostella, 72 h).
The corresponding values for `CCN(C(=O)C(C)(C)c1ccc(F)cc1)c1ccc(Br)cc1` [compound 14] are 93 µg/mL (≈ 255 µM) and 88 µg/mL (≈ 242 µM).
The corresponding values for `CC(C)(C(=O)Nc1ccc(Cl)cc1)c1ccc(Br)cc1` [compound 15] are 129 µg/mL (≈ 366 µM) and 137 µg/mL (≈ 388 µM).
As for `CC(C)(C(=O)Nc1ccc(Cl)cc1)c1ccccc1F` [compound 16], the LC50 in assay [1] (Plutella xylostella, 72 h) turned out to be 331 µg/mL (≈ 1130 µM); in assay [3] (Plutella xylostella, 72 h) it was 320 µg/mL (≈ 1100 µM).
In the case of `CC(C)(C(=O)Nc1ccc(C(F)(F)F)cc1)c1ccccc1F` [compound 17], the LC50 in assay [1] (Plutella xylostella, 72 h) worked out at 256 µg/mL (≈ 787 µM); in assay [3] (Plutella xylostella, 72 h) it was 281 µg/mL (≈ 864 µM).
The matching figures for `CN(C(=O)C(C)(C)c1ccccc1F)c1ccc(Cl)cc1` [compound 18]: 211 µg/mL (≈ 690 µM) and 213 µg/mL (≈ 697 µM).
The matching figures for `CC(C)(C(=O)Nc1ccc(Cl)cc1)c1ccc(Cl)cc1Cl` [compound 19]: 106 µg/mL (≈ 309 µM) and 119 µg/mL (≈ 347 µM).
Turning to `CC(C)(C(=O)Nc1ccc(F)cc1)c1ccc(Cl)cc1Cl` [compound 20], the LC50 in assay [1] (Plutella xylostella, 72 h) worked out at 128 µg/mL (≈ 392 µM); in assay [3] (Plutella xylostella, 72 h) it was 122 µg/mL (≈ 374 µM).
